Reference: ChEMBL document CHEMBL5505981, “Design, synthesis and biological evaluation of novel 1,2,4a,5-tetrahydro-4H-benzo[b][1,4]oxazino[4,3-d][1,4]oxazine-based AAK1 inhibitors with anti-viral property against SARS-CoV-2” (Eur J Med Chem, 2024)
Calls of active or inactive are those of the source. The calls are words filed in the database; no cut-off is given here.

Experiments:
SARS-CoV-2 [1] = assay: microbe, parasite or virus in culture; conditions: Severe acute respiratory syndrome coronavirus 2, HEK293
SARS-CoV-2 [2] = type: functional, organism-based; conditions: Severe acute respiratory syndrome coronavirus 2; HEK293; dose 3.0 µM, time 25.0 hrs
SARS-CoV-2 [3] = type: functional, organism-based; conditions: Severe acute respiratory syndrome coronavirus 2; HEK293; dose 3.0 µM, time 4.0 hrs
HEK293 [4] = type: cell-based; conditions: Homo sapiens, dose 1-3 µM, time 4.0 hrs
SARS-CoV-2 [5] = type: functional, organism-based; conditions: Severe acute respiratory syndrome coronavirus 2; HEK293; dose 10.0 µM, time 6.0 hrs
SARS-CoV-2 [6] = type: functional, organism-based; conditions: Severe acute respiratory syndrome coronavirus 2; HEK293; dose 10.0 µM, time 6.0 hrs; remark: listed apart in the source
HEK293 [7] = type: cell-based; conditions: Homo sapiens, dose 5-10 µM, time 4.0 hrs
SARS-CoV-2 [8] = type: functional, organism-based; conditions: Severe acute respiratory syndrome coronavirus 2; HEK293; dose 5.0 µM, time 6.0 hrs
SARS-CoV-2 [9] = type: functional, organism-based; conditions: Severe acute respiratory syndrome coronavirus 2; HEK293; dose 5.0 µM, time 6.0 hrs; remark: listed apart in the source

SMILES	IC50 (SARS-CoV-2 [1]) [µM]	inhibition (SARS-CoV-2 [2])	Activity (SARS-CoV-2 [3])	inhibition (HEK293 [4])	Activity (SARS-CoV-2 [5])	Activity (SARS-CoV-2 [6])	inhibition (HEK293 [7])	Activity (SARS-CoV-2 [8])	Activity (SARS-CoV-2 [9])
CCN(CC)CCNC(=O)c1c(C)[nH]c(/C=C2\C(=O)Nc3ccc(F)cc32)c1C [SUNITINIB]	~1.96								
COc1ccc(-c2cnc3[nH]cc(C#Cc4cccnc4)c3c2)cc1OC	~3.11	Active	Active	Active					
CCN(CC)S(=O)(=O)Nc1cccc(-c2ccc3c(NC(=O)C4CC4)n[nH]c3c2)c1			Active		Active	Active	Active		
C(#Cc1c[nH]c2ncc(-c3ccc4c(c3)OCC3COCCN43)cc12)c1cccnc1 (configuration not stated)	~2.9	Active	Active	Active					
CC(C)C[C@](C)(N)COc1ccc(-c2ccnc(C(F)F)c2)nc1C(F)F [PILAVAPADIN]	~4.18		Active					Active	Active
